These results are taken from patent US7115574B2, “System and method for support legacy operating system booting in a legacy-free system” (priority 2001, dated 2006).

Non-standard residues stand in square brackets, D forms with d. No end group written: not given here.

Test [1] relates to edema caused by intradermal injection of recombinant human IL-1β in the mouse ear. Kind of test: IL-1β-induced ear edema with centrally administered α-MSH and receptor antagonists. The format is in vivo, BALB/c mice. As to the method: See Macaluso, A., McCoy, D., Ceriani, G., Watanabe, T., Biltz, J., Catania, A., and Lipton, J. M., Anti-inflammatory Influences of a-MSH Molecules: Central Neurogenic and Peripheral Actions, 14(4), J. of Neuroscience 2377-2382 (1994). Female BALB/c mice (Simonsen Laboratories, Gilroy, Calif.), 7-8 weeks old, were housed at 23-25° C. in groups not exceeding five animals per cage [28 cm (L)×18 cm (W)×13 cm (H)]. Before the experiments they were acclimatized for not less than 1 week before experimentation to standard lighting and temperature conditions with food and water freely available.
Mice were anesthetized with 10% pentobarbital sodium solution (1 mg/mouse, 50 mg/ml, Nembutal sodium solution; Abbott Laboratories, North Chicago, Ill.). Baseline ear thickness measurements were taken with a spring-loaded micrometer (Swiss Precision Instruments, Los Angeles, Calif.). Ear thickness was expressed in centimeters and was measured at least twice at each time point. The average thickness of unstimulated ears was […]. Inflammation was induced by injecting 20 μl of recombinant human IL-1β (1500 U; Genzyme, Cambridge, Mass.) directly into the skin (intradermally) of one ear of each mouse using a 28 gauge needle (Hiltz et al., 1992). Measures of ear thickness were repeated 4 and 6 hr later, while the mice were under sodium pentobarbital anesthesia.
Several agents were administered at the time of ear challenge to pharmacologically block certain receptors: atropine (Sigma Chemical Co.; 150 μg i.p.), a muscarinic receptor blocker that acts on autonomic end-organ receptors, was chosen because of links between inflammation and modulation of pain and the finding that muscarinic antagonists increase pain threshold (Hartvig et al., 1989); phentolamine (Sigma; 150 μg i.p.) an agent that competes for occupancy of α-adrenergic receptors; propranolol (Sigma; 150 μg, i.p.; 30 μg, i.c.v.), a nonspecific competitive antagonist for β-adrenergic receptors.
Because of the size of the experiments and the requirement for several shipments of animals over time, several experiments were performed, each with complete treatment and control groups drawn from the same shipment of mice. Omnibus analysis of variance techniques (Dynastat, Washington, D.C.) were used to test overall differences among group means. Tukey's protected t test was used to compare individual means. Probability values of <0.05 were considered significant.

Test [2] concerns inflammation induced in the ear by picryl chloride application. Kind of test: Picryl chloride-induced ear swelling. The format is in vivo, BALB/C mice. Particulars: for % Inhibition 3 h: 3 h after picryl chloride; for % Inhibition 6 h: 6 h after picryl chloride; for overall effect on inflammation (ANOVA): 10-80 μg IP, 3 and 6 h. As to the method:
Hiltz, M. E., Catania, A., Lipton, J. M., Anti-Inflammatory Activity of aα-MSH (11-13) Analogs: Influence of Alteration in Stereochemistry, 12 Peptides 767 (1981). […] Female BALB/C mice (Simonsen Laboratories), 7 weeks old, were housed at 23-25° C. in groups of no more than 5 per cage [28 cm (L)×18 cm (W)×13 cm (H)]. They were allowed to acclimatize to standard lighting and temperature conditions for at least 1 week, with food and water available ad lib, before the experiment began. Five to ten animals were randomly assigned to each treatment group each test day, and all experiments were repeated at least twice to confirm reproducibility. To reduce error due to slight differences in responses to the irritant of animals from different shipments, tests of each agent were performed as separate experiments in which experimental and control animals were drawn from the same shipment.
In the experiments each animal was anesthetized with 1 mg of pentobarbital sodium solution ([…], Nembutal, Abbott Laboratories, Abbott park, Ill.). Baseline ear thickness was measured for both ears with a spring-loaded micrometer (Swiss Precision Instruments, Los Angeles, Calif.). Ear thickness was expressed in units of 10^−3 cm; the average thickness of unstimulated ears was approximately 25-30×10^−3 cm. After baseline measurements were taken, one of six solutions was injected IP. […] The doses of the tripeptides were 10 μg (2.6×.10^−8 M), 20 μg (5.2×.10^−8 M), 40 μg (1.04×.10^−7 M), and 80 μg (2.08×.10^−7 M). Immediately after saline or α-MSH injection, a micropipette was used to coat both sides of each ear with 10 μl […] of a 0.5% picryl chloride (Polysciences, Warrington, Pa.) solution in acetone.
Ear thickness was remeasured 3 and 6 h after picryl chloride application. Swelling was determined by subtracting baseline thickness from the measurements for each ear at 3 and 6 h. The differences for both ears were then averaged for the final analysis.
Repeated-measure ANOVA techniques were used to determine if there was an overall difference among group data for each peptide tested in separate experiments. In those cases in which the ANOVA yielded significant results, Dunnett's test was then used to compare the effects of peptide doses with control (saline) data for each of the two time periods, 3 and 6 h.

The next test deals with C. albicans. Kind of test: C. albicans colony forming units (candidacidal activity). The format is cell-based. Particulars: for relative potency in reducing C. albicans viability: FIG. 2, 10^−4M melanocortin peptides. Here is the method:
C. albicans (clinical isolate) was obtained from the collection of the Department of Microbiology, Ospedale Maggiore di Milano and maintained on Sabouraud's agar slants and periodically transferred to Sabouraud's agar plates and incubated for 48 hours at 28° C. To prepare a stationary growth phase yeast, a colony was taken from the agar plate and transferred into 30 ml Sabouraud-dextrose broth and incubated for 72 hours at 32° C. Cells were centrifuged and suspended in Hank's balanced salt solution (“HBSS”) to the desired concentration. Viability, determined by the exclusion of 0.01% methylene blue, remained >98%.
C. albicans (1×10^6/ml in HBSS) was incubated in the presence or absence or α-MSH(1-13) (SEQ ID NO: 3) or (11-13) (SEQ ID NO: 1) at concentrations in the range of 10^−15 M to 10^−6 M for 2 hours at 37° C. Cells were then washed in cold distilled water and diluted with HBSS to a concentration of 100 organisms/ml. One-ml aliquots were dispensed on blood agar plates and incubated for 48 hours at 37° C. Organism viability was estimated from the number of colonies formed.
In subsequent experiments using familiar procedures we compared activity of α-MSH(4-10) (SEQ ID NO: 10), (6-13) (SEQ ID NO: 2), (11-13) (SEQ ID NO: 1), ACTH(1-39) (SEQ ID NO: 9), (18-39) (SEQ ID NO: 11) and fluconazole, the latter an established antifungal agent. Melanocortin peptides and fluconazole were tested in concentrations of 10^−6 M to 10^−4 M. There were at least six replicates for each concentration of peptide. […]

Test [3] deals with carrageenan-induced swelling in rat paws. Kind of test: Rat paw edema test (carrageenan). In kind it is in vivo, Sprague-Dawley rats. Particulars: 100 mg/kg intraperitoneal, rats. Here is the method: A second in vivo bioassay for anti-inflammatory activity was conducted in which the action of the tripeptide (SEQ ID NO: 1) was compared to that of hydrocortisone. In this assay, the two agents were given at similar doses and tested for their independent ability to inhibit carrageenan-induced swelling in rat paws. This assay, the rat paw edema test, was conducted generally as it is typically performed in the art, for example, as described by Winter et al. (1962), Proc. Soc. Exp. Biol. Med., 111:544 or in U.S. Pat. No. 4,150,137.
Briefly, the assay was performed as follows. Each of twenty-four male Sprague-Dawley rats was assigned to one of four groups: Tripeptide treatment and controls (matched according to body weight and initial paw volume), hydrocortisone treatment and matched controls. The volume of the right rear paw of the test and control animals was determined using standard procedures and a mercury displacement volumetric technique. […] One hour later 0.5 ml of 1% lambda carrageenan in saline solution was injected into the right rear paw of the animals and the paw volume was again recorded (baseline measure). For comparison of the effects of the two treatments, paw volume of experimental animals measured at hourly intervals was expressed as a percentage of the volume change of their respective matched controls.

[4] abbreviates: antagonist administered intraperitoneally.

Take `CN1[C@@H]2CC[C@H]1C[C@@H](OC(=O)C(CO)c1ccccc1)C2` (stereo partly drawn) [atropine]: the “effect of antagonist on the anti-inflammatory influence of centrally administered α-MSH(1-13)” value (from here on “effect of antagonist”) in test [1] (setting [4]) was “did not alter”.

In the case of `CC(C)NCC(O)COc1ccc(CC(N)=O)cc1` (stereo not drawn) [atenolol], the “effect of antagonist” value in test [1] (setting [4]) was “little inhibition”.

Regarding `CC(C)NCC(O)COc1cccc2ccccc12` (stereo not drawn) [propranolol], the “effect of antagonist” value in test [1] (setting [4]) is “inhibited”; in test [1] (antagonist injected centrally), “little effect”.

Turning to “Ac-[D-Lys^11]α-MSH(11-13)-NH2 (Ac-[dK]-Pro-Val-NH2; SMILES CC(=O)N[C@H](CCCCN)C(=O)N1CCC[C@H]1C(=O)N[C@H](C(N)=O)C(C)C)”, the “% Inhibition 3 h” value in test [2] (10 μg IP) came out at 23%; in test [2] (20 μg IP), 25%; in test [2] (40 μg IP), 35%; in test [2] (80 μg IP) it was 34%. For the same compound, the “% Inhibition 6 h” value came to 17% in test [2] (10 μg IP), 16% in test [2] (20 μg IP), 37% in test [2] (40 μg IP) and 29% in test [2] (80 μg IP). In addition, in test [2], the “overall effect on inflammation (ANOVA)” value is on record as “significantly reduced inflammation”.

As for “VPK-Ac-CC-Ac-KPV (Ac-CKPV; also: disulfide dimer via Cys)”, the “effectiveness against microbes relative to α-MSH(11-13)” value in the test on C. albicans is “at least as effective as α-MSH(11-13)”. In addition, the “C. albicans colony forming units (CFU)” value in the test on C. albicans (FIG. 1, incubation 2 hours at 37° C.) is listed as “inhibited”.

On to “Ac-[D-Lys^11, D-Val^13]α-MSH(11-13)-NH2 (Ac-[dK]-Pro-[dV]-NH2; SMILES CC(=O)N[C@H](CCCCN)C(=O)N1CCC[C@H]1C(=O)N[C@@H](C(N)=O)C(C)C)”, for which the “% Inhibition 3 h” value in test [2] (10 μg IP) turned out to be 22%; in test [2] (20 μg IP), 55%; in test [2] (40 μg IP) it was 42%; in test [2] (80 μg IP), 40%. Further, the “% Inhibition 6 h” value is recorded as 22% in test [2] (10 μg IP), 46% in test [2] (20 μg IP), 41% in test [2] (40 μg IP) and 44% in test [2] (80 μg IP). For the same compound, the “overall effect on inflammation (ANOVA)” value in test [2] was “significant overall reduction in inflammation”.

Take `C[C@]12CCC(=O)C=C1CC[C@@H]1[C@@H]2[C@@H](O)C[C@@]2(C)[C@H]1CC[C@]2(O)C(=O)CO` [hydrocortisone, reference compound]: the “anti-inflammatory activity (inhibition of paw edema)” value in test [3] (between 1 and 4 hours) was “nearly identical anti-inflammatory activity”. Further, the “decrease in paw inflammation” value in test [3] (first hour after carrageenan injection) was roughly 30%.

For “ACTH(1-39): adrenocortitrophic hormone (ACTH) peptide 1-39 (SYSMEHFRWGKPVGKKRRPVKVYPAGEDDEASEAFPLEF; listed as Homo sapiens) [reference compound]”, the “relative potency in reducing C. albicans viability” value in the test with C. albicans is “did not reduce”.

“ACTH(18-39): ACTH fragment (18-39) (CLIP) (RPVKVYPAGEDDEASEAFPLEF; Designed polypeptide with anti-inflammatory, anti-microbial, anti-fungal, and anti-viral properties.) [reference compound]”: the “relative potency in reducing C. albicans viability” value in the test with C. albicans is given as “did not reduce”.

Turning to `Cc1ccc(N(CC2=NCCN2)c2cccc(O)c2)cc1` [phentolamine], in test [1] (setting [4]), the “effect of antagonist” value is recorded as “did not alter”.

For `COc1ccc(OC)c(C(O)C(C)NC(C)(C)C)c1` (stereo not drawn) [butoxamine], the “effect of antagonist” value in test [1] (setting [4]) is recorded as “significantly reduced”.

As to “Ac-[D-Pro^12]α-MSH(11-13)-NH2 (Ac-Lys-[dP]-Val-NH2; SMILES CC(=O)N[C@@H](CCCCN)C(=O)N1CCC[C@@H]1C(=O)N[C@H](C(N)=O)C(C)C)”, the “% Inhibition 3 h” value in test [2] (10 μg IP) was found to be 4%; in test [2] (20 μg IP), 11%; in test [2] (40 μg IP), 10%; in test [2] (80 μg IP) it was 8%. The “% Inhibition 6 h” value in test [2] (10 μg IP) turned out to be 8%; in test [2] (20 μg IP), 5%; in test [2] (40 μg IP) it was 8%; in test [2] (80 μg IP) it was 6%. Also, the “overall effect on inflammation (ANOVA)” value in test [2] is recorded as “no significant effect on inflammation”.

With “Ac-[D-Val^13]α-MSH(11-13)-NH2 (Ac-Lys-Pro-[dV]-NH2; SMILES CC(=O)N[C@@H](CCCCN)C(=O)N1CCC[C@H]1C(=O)N[C@@H](C(N)=O)C(C)C) [Ac-[D-Pro^13]α-MSH(11-13)-NH2]”, the “% Inhibition 3 h” value in test [2] (10 μg IP) was determined as 24%; in test [2] (20 μg IP) it was 48%; in test [2] (40 μg IP), 39%; in test [2] (80 μg IP), 41%. Further, the “% Inhibition 6 h” value in test [2] (10 μg IP) is 23%; in test [2] (20 μg IP), 54%; in test [2] (40 μg IP), 45%; in test [2] (80 μg IP) it was 29%. Further, in test [2], the “overall effect on inflammation (ANOVA)” value is “marked inhibitory influence”.
